Measured values as given in ChEMBL document CHEMBL5149996, “Structure-Based Optimization and Discovery of M3258, a Specific Inhibitor of the Immunoproteasome Subunit LMP7 (β5i)” (J Med Chem, 2021).

Key:
[1] = molecular target: T1, Proteasome subunit beta type-8 (Homo sapiens, UniProt P28062); assay: Inhibition of human 20S immunoproteasome beta-5i subunit using Suc-LLVY-AMC as substrate preincubated for 2 hrs followed by substrate addition and measured after 1 hr by fluorescence intensity assay
T1 sequence (P28062 whole entry): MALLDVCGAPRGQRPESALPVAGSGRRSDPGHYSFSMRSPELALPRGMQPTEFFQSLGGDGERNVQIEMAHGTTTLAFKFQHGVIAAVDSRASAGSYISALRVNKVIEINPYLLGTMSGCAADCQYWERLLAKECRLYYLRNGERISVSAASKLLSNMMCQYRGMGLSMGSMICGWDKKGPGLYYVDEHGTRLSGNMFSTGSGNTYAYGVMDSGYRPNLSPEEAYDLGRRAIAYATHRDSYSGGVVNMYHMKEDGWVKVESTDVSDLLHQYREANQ

[2] = molecular target: T2, Proteasome Macropain subunit MB1 (Homo sapiens, UniProt P28074); assay: Inhibition of human 20S proteasome beta5 subunit using Suc-LLVY-AMC as substrate preincubated for 2 hrs followed by substrate addition and measured after 1 hr by fluorescence intensity assay
T2 sequence (P28074 whole entry): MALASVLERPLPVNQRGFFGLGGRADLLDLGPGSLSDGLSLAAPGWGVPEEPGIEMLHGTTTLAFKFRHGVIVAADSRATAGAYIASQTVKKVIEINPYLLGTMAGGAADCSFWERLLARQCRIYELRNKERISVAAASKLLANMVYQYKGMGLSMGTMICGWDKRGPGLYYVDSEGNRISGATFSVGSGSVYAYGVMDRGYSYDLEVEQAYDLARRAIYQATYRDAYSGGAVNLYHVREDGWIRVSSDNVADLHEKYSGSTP

Homo sapiens [3] = species: Homo sapiens; assay: Selectivity ratio of IC50 for inhibition of human 20S proteasome beta5 subunit to IC50 for inhibition of human 20S immunoproteasome beta-5i subunit
[4] = molecular target: T2, Proteasome Macropain subunit MB1; assay: Inhibition of 20S proteasome beta5 subunit in human A549 cells using Suc-LLVY-luciferin substrate preincubated for 2 hrs followed by substrate addition and measured after 30 mins by luminometric analysis; assay type: cell-based
[5] = molecular target: T1, Proteasome subunit beta type-8; assay: Inhibition of 20S immunoproteasome beta-5i subunit in human PBMC using Ac-ANW-luciferin substrate preincubated for 2 hrs followed by substrate addition and measured after 30 mins by luminometric analysis; assay type: cell-based
Homo sapiens [6] = species: Homo sapiens; assay: Selectivity ratio of IC50 for inhibition of 20S proteasome beta5 subunit in human A549 cells to IC50 for inhibition of 20S immunoproteasome beta-5i subunit in human PBMC; assay type: cell-based
[7] = Lipophilicity, log P of the compound; assay type: physicochemical; details: octanol/water
[8] = Intrinsic clearance in mouse liver microsomes measured per mg protein; assay type: ADME, Microsome; details: read-out: CLH
[9] = Clearance in mouse hepatocytes measured per million of cells; assay type: ADME, cell-based, Hepatocyte; details: read-out: CLH

IC50 [1] [nM] | IC50 [2] [nM] | Ratio IC50 (Homo sapiens [3]) | IC50 [4] [nM] | IC50 [5] [nM] | logP [7] | microsomal CLint [8] [µL/min/mg] | hepatocyte CLint [9] [µL/min/1e6 cells] | SMILES | Ratio IC50 (Homo sapiens [6])
4.4 | 14000 | 3150 | > 30000 | 60 | – | – | – | Cc1cccc2c1OC[C@H]2C[C@H](NC(=O)Cc1ccccc1C#N)B(O)O | > 496
610 | > 30000 | > 49 | > 30000 | 9670 | – | – | – | O=C(Cc1ccccc1)N[C@@H](C[C@H]1COc2c(Cl)cccc21)B(O)O | –
10 | 4300 | 410 | 1690 | 13.7 | 1.85 | 19 | 26.7 | O=C(N[C@@H](Cc1coc2ccccc12)B(O)O)[C@@H]1CCOC1 | 123
4.1 | 860 | 210 | 2060 | 41.5 | – | – | – | O=C(Cc1ccccc1)N[C@@H](Cc1coc2c(Cl)cccc12)B(O)O | 49
91 | 6300 | 69 | 6290 | 438 | – | – | – | Cc1ccc(C[C@H](NC(=O)Cc2ccccc2)B(O)O)cc1 | 14
2.3 | 540 | 232 | 646 | 24.7 | – | – | – | O=C(Cc1cccnc1)N[C@@H](Cc1coc2ccccc12)B(O)O | 26
2.2 | 140 | 63 | 222 | 8.9 | – | – | – | COc1cccc2c(C[C@H](NC(=O)Cc3ccccc3)B(O)O)coc12 | 24
1200 | > 30000 | > 25 | 5900 | 1410 | – | – | – | Cc1ccc(C[C@@H](NC(=O)Cc2ccccc2)B(O)O)cc1C | 4.2
18 | 1400 | 70 | 420 | 27.1 | – | – | – | CC(=O)N[C@@H](Cc1coc2ccccc12)B(O)O | 16
1.9 | 400 | 205 | 241 | 10.6 | – | – | – | COCCC(=O)N[C@@H](Cc1coc2ccccc12)B(O)O | 23
130 | 26000 | 194 | > 30000 | 896 | – | – | – | Cc1ccc(C[C@H](NC(=O)Cc2ccccc2)B(O)O)c(C)c1 | > 33
3.1 | 7200 | 2330 | 14000 | 53 | – | – | – | Cc1cccc2c1OC[C@H]2C[C@H](NC(=O)Cc1ccccc1)B(O)O | 262
11 | 2300 | 222 | 2540 | 71 | – | – | – | O=C(Cc1ccncc1)N[C@@H](Cc1coc2ccccc12)B(O)O | 36
38 | 5600 | 148 | 8750 | 983 | – | – | – | O=C(Cc1ccccc1)N[C@@H](Cc1ccc(Cl)cc1)B(O)O | 8.9
85 | 15000 | 182 | 24500 | 434 | – | – | – | Cc1ccc(C[C@H](NC(=O)Cc2ccccc2)B(O)O)cc1C | 56
1.8 | 2900 | 1620 | 6100 | 25 | – | – | – | O=C(Cc1ccccc1)N[C@@H](C[C@@H]1COc2c(Cl)cccc21)B(O)O | 243

IC50 [1] [nM] | IC50 [2] [nM] | Ratio IC50 (Homo sapiens [3]) | IC50 [4] [nM] | IC50 [5] [nM] | logP [7] | microsomal CLint [8] [µL/min/mg] | hepatocyte CLint [9] [µL/min/1e6 cells] | SMILES | Ratio IC50 (Homo sapiens [6])
5.9 | 930 | 158 | 817 | 40 | 2.1 | 48 | 90.7 | O=C(N[C@@H](Cc1coc2ccccc12)B(O)O)[C@H]1CCCO1 | 20
6 | 820 | 137 | 520 | 26.7 | – | – | – | COCC(=O)N[C@@H](Cc1coc2ccccc12)B(O)O | 20
1.9 | 410 | 212 | 328 | 18 | – | – | – | O=C(Cc1cnccn1)N[C@@H](Cc1coc2ccccc12)B(O)O | 18
1000 | 15000 | 15 | 7000 | 3300 | – | – | – | CC(C)C[C@H](NC(=O)Cc1ccccc1)B(O)O | 2.1
200 | 20000 | 104 | 16500 | 824 | – | – | – | O=C(Cc1ccccc1)N[C@@H](Cc1c(Cl)oc2ccccc12)B(O)O | –
3.1 | 530 | 168 | 785 | 22.8 | – | – | – | O=C(Cc1ccccc1)N[C@@H](Cc1coc2c(F)cccc12)B(O)O | 34
29 | 5000 | 172 | 10100 | 824 | – | – | – | O=C(Cc1ccccc1)N[C@@H](Cc1cc2ccccc2o1)B(O)O | 12
28 | 5000 | 175 | 3000 | 55 | 2.1 | 16 | – | O=C(N[C@@H](Cc1coc2ccccc12)B(O)O)[C@H]1CCOC1 | 54
6.4 | 1700 | 272 | 7320 | 164 | – | – | – | Cc1c(Cl)ccc2c(C[C@H](NC(=O)Cc3ccccc3)B(O)O)coc12 | 44
3.7 | 770 | 212 | 894 | 31 | – | – | – | O=C(Cn1cccn1)N[C@@H](Cc1coc2ccccc12)B(O)O | 29
2.9 | 7400 | 2570 | 20900 | 51 | – | – | – | N#Cc1ccccc1CC(=O)N[C@@H](C[C@@H]1COc2c(Cl)cccc21)B(O)O | 406
2.3 | 230 | 101 | 204 | 15.5 | – | – | – | O=C(Cc1ncccn1)N[C@@H](Cc1coc2ccccc12)B(O)O | 13
5.2 | 1700 | 334 | 2220 | 42 | – | – | – | N#Cc1ccccc1CC(=O)N[C@@H](Cc1coc2ccccc12)B(O)O | 52
160 | 16000 | 99 | 9560 | 643 | – | – | – | O=C(Cc1ccccc1)N[C@@H](Cc1ccccc1)B(O)O | 15
4.5 | 1200 | 276 | 2100 | 29 | – | – | – | Cc1cccc2c(C[C@H](NC(=O)Cc3ccccc3)B(O)O)coc12 | 71

SMILES | IC50 [1] [nM] | IC50 [2] [nM] | Ratio IC50 (Homo sapiens [3]) | IC50 [4] [nM] | IC50 [5] [nM] | logP [7] | microsomal CLint [8] [µL/min/mg] | hepatocyte CLint [9] [µL/min/1e6 cells] | Ratio IC50 (Homo sapiens [6])
O=C(N[C@@H](Cc1coc2ccccc12)B(O)O)[C@@H]1C[C@@H]2CC[C@H]1O2 | 89 | 15000 | 173 | – | – | – | – | – | –
O=C(N[C@@H](Cc1coc2ccccc12)B(O)O)[C@H]1C[C@H]2CC[C@@H]1O2 | 140 | > 30000 | > 210 | – | – | – | – | – | –
